Entries after “also recorded” stand apart in the source; their conditions may differ.
Assays:
[1] = tested on: WM164 human melanoma cells; assay: Crystal violet (CV) cell viability assay; type: cell-based; conditions: 24 h exposure
Procedure: (§1) Cells were seeded into the 96-well cell culture plates in 100 μl of complete culture medium at the initial density of 2x10^4 (cells/ml). Cells were incubated under 5 % CO2 at 37 °C for 24 hours for adhering to the wells and medium was then replaced with 100 μl of fresh medium containing excipient solution at the required final concentration. Each concentration was tested in minimum of 5 replicates and control cells were exposed to the culture medium only. Fixed cells were stained with crystal violet dye solution to screen cell viability under treatment conditions. Cells are fixed by 4 % (v/v) paraformaldehyde in PBS for 10 minutes. Crystal violet assay of 0.05 % (v/v) is prepared by 1:4 dilution of the crystal violet stock solution (v/v) in 4 % (v/v) paraformaldehyde. The fixed cells were washed twice with PBS and covered with 250 µl crystal violet working solution. The plates were placed on a bench rocker with medium frequency (20 oscillations per minute) at room temperature for 20 minutes. The plates were emptied and washed under indirect stream of tap water for three times and inverted on filter paper. The plates were taped gently on the paper to remove any remaining liquid and air dried with no lid for minimum of 2 hr at room temperature. After the plates were photographed, blue dye was dissolved in DMSO and the optical density of each well was measured at 570 nm (OD570) with a plate reader (Multiskan™ FC Microplate Photometer). The effect of each treatment was calculated as the percentage of crystal viable staining of surviving attached cells, against the negative control (cells treated with culture medium only). To assess the excipients' cytotoxicity, the dose-response effect of each excipient was measured against the cell lines. The cytotoxicity value for each concentration of the excipients was expressed as percentage of viability against the untreated control wells (the optical density of untreated cells was set at 100 % viability) to construct dose-response curves. […] All IC50 values were expressed as µg/ml. The percentage viability was calculated as follows: […]

[2] = tested on: WM1366 human melanoma cells; assay: Crystal violet (CV) cell viability assay; type: cell-based; conditions: 24 h exposure
Procedure: as §1

D24 human melanoma cells [3] = assay: Crystal violet (CV) cell viability assay; type: cell-based; conditions: 24 h exposure
Procedure: as §1

[4] = tested on: HaCaT human keratinocytes; assay: Crystal violet (CV) cell viability assay; type: cell-based; conditions: 24 h exposure
Procedure: as §1

[5] = tested on: primary skin fibroblasts (FB); assay: MTT cell viability assay; type: cell-based, human; conditions: 24 h exposure
Procedure: (§2) Cells were seeded into the 96-well cell culture plates in 100 μl of complete culture medium at the initial density of 2x10^4 (cells/ml). Cells were incubated under 5 % CO2 at 37 °C for 24 hours for adhering to the wells and medium was then replaced with 100 μl of fresh medium containing excipient solution at the required final concentration. Each concentration was tested in minimum of 5 replicates and control cells were exposed to the culture medium only.
(§3) After cell incubation for 24 h, the excipient-containing medium was removed, and 100 μl of MTT in PBS (5 mg/ml) diluted 1:10 in medium was then added in the dark. Plates were further incubated for 2-3 h, after which time the medium was removed and the purple formazan product was dissolved by adding 200 μl of DMSO to each well. Plates were then placed in a shaker for 5 min at room temperature and the absorbance of the resulting solutions was measured at 570 nm using a microplate reader (Multiskan™ FC Microplate Photometer). The effect of each treatment was calculated as the percentage of tetrazolium salt reduction by viable cells against the negative control (cells treated with culture medium only).
(§4) To assess the excipients' cytotoxicity, the dose-response effect of each excipient was measured against the cell lines. The cytotoxicity value for each concentration of the excipients was expressed as percentage of viability against the untreated control wells (the optical density of untreated cells was set at 100 % viability) to construct dose-response curves.
(§5) All IC50 values were expressed as µg/ml. The percentage viability was calculated as follows: […]

[6] = tested on: primary skin fibroblasts (FB); assay: Crystal violet (CV) cell viability assay; type: cell-based, human; conditions: 24 h exposure
Procedure: as §1

[7] = tested on: WM164 human melanoma cells; assay: MTT cell viability assay; type: cell-based; conditions: 24 h exposure
Procedure: as §2, §3, §4, §5

[8] = tested on: WM1366 human melanoma cells; assay: MTT cell viability assay; type: cell-based; conditions: 24 h exposure
Procedure: as §2, §3, §4, §5

D24 human melanoma cells [9] = assay: MTT cell viability assay; type: cell-based; conditions: 24 h exposure
Procedure: as §2, §3, §4, §5

[10] = tested on: HaCaT human keratinocytes; assay: MTT cell viability assay; type: cell-based; conditions: 24 h exposure
Procedure: as §2, §3, §4, §5

[11] = tested on: human cell lines (WM164, WM1366, D24, HaCaT, FB); assay: MTT and CV cytotoxicity, statements over all tested cell lines; type: cell-based; conditions: for Irritancy ranking: rank by MTT and CV IC50 over all cell lines, 1 = most cytotoxic
Procedure: as §2, §3
Fixed cells were stained with crystal violet dye solution to screen cell viability under treatment conditions. Cells are fixed by 4 % (v/v) paraformaldehyde in PBS for 10 minutes. Crystal violet assay of 0.05 % (v/v) is prepared by 1:4 dilution of the crystal violet stock solution (v/v) in 4 % (v/v) paraformaldehyde. The fixed cells were washed twice with PBS and covered with 250 µl crystal violet working solution. The plates were placed on a bench rocker with medium frequency (20 oscillations per minute) at room temperature for 20 minutes. The plates were emptied and washed under indirect stream of tap water for three times and inverted on filter paper. The plates were taped gently on the paper to remove any remaining liquid and air dried with no lid for minimum of 2 hr at room temperature. After the plates were photographed, blue dye was dissolved in DMSO and the optical density of each well was measured at 570 nm (OD570) with a plate reader (Multiskan™ FC Microplate Photometer). The effect of each treatment was calculated as the percentage of crystal viable staining of surviving attached cells, against the negative control (cells treated with culture medium only).
as §4
The cytotoxicity of the excipients was expressed in terms of an IC50 values (concentration causing 50 % death of the cell population) (Goldberg and Frazier, 1989[37]). […] All IC50 values were expressed as µg/ml. The percentage viability was calculated as follows: […]

[12] = Table 1, physicochemical information of the excipients, source not given; cited from earlier work
[13] = tested on: human leukemic cells (CCRF); design: method as in Duncan et al., 1994[25]; conditions: ref Duncan et al., 1994[25]; cited from earlier work

| Substance | IC50 (μg/ml) [Mean, Range] WM164, CV [1] | IC50 (μg/ml) [Mean, Range] WM1366, CV [2] | IC50 (μg/ml) [Mean, Range] D24, CV (D24 human melanoma cells [3]) | IC50 (μg/ml) [Mean, Range] HaCaT, CV [4] | IC50 (μg/ml) [Mean, Range] FB, MTT [5] | IC50 (μg/ml) [Mean, Range] FB, CV [6] | IC50 (μg/ml) [Mean, Range] WM164, MTT [7] | IC50 (μg/ml) [Mean, Range] WM1366, MTT [8] | IC50 (μg/ml) [Mean, Range] D24, MTT (D24 human melanoma cells [9]) | IC50 (μg/ml) [Mean, Range] HaCaT, MTT [10] | Cytotoxicity (result in words) ([11]; all cell lines, at the applied concentrations, 24 h) | Irritancy ranking [11] | HLB [12] | IC50, MTT assay [13] [µg/mL] | Concentration causing significant inhibition of cell growth ([11]; all cell lines) [µg/mL] | IC50 ([11]; over the tested cell lines, this study) [µg/mL] |
| --- | --- | --- | --- | --- | --- | --- | --- | --- | --- | --- | --- | --- | --- | --- | --- | --- |
| Propylene glycol dicaprylocaprate [Labrafac®] | > Max Conc. | > Max Conc. | > Max Conc. | > Max Conc. | > Max Conc. | > Max Conc. | > Max Conc. | > Max Conc. | > Max Conc. | > Max Conc. | non-toxic; also recorded: did not induce any reduction in cell viability; also recorded: caused no toxicity to any cell lines; also recorded: No damaging effects on cell growth | 5 |  |  |  |  |
| Triton X-100 [reference compound] | 0.0265 µg/mL | 0.089 µg/mL | 0.043 (0.04 to 0.045) μg/ml | 0.044 (0.042 to 0.047) μg/ml | 0.1034 (0.08 to 0.16) μg/ml | 0.094 (0.08 to 0.13) μg/ml | 0.0042 (0.002 to 0.01) μg/ml | 0.083 µg/mL | 0.0429 (0.04 to 0.05) μg/ml | 0.0417 (0.04 to 0.043) μg/ml |  | 1 | 13.5 | 1 | 0.004 | < 0.08 |

— publication PMC10776879, “In vitro screening of topical formulation excipients for epithelial toxicity in cancerous and non-cancerous cell lines” (EXCLI Journal, 2023)
